The results in this text go back to US20100204090A1, “USE OF A PEPTIDE AS A THERAPEUTIC AGENT” (priority 2007, published 2010).

Each structure is given as a SMILES string. Bridge positions count the residues as written; N and C are the ends. Peptide text beside a SMILES is read from it.

The subject of data set [1] is HepG2-2.2.15 cells. Nature of the data set: Cell viability (dye uptake) in the HBV assay. It counts as cell-based. The note with it: peptide 10 micrograms per ml, % cell control.
In data set [2] the test system is hepatitis B virus (HBV) ayw strain. Nature of the data set: HBV replication assay in HepG2-2.2.15 cells (secreted HBV DNA, TaqMan PCR). The data set is classed as cell-based. To be noted: peptide 10 micrograms per ml; six days; HBV DNA in supernatant, % virus control.
The nature of data set [3]: Cell viability (dye uptake) in the HBV assay. It counts as cell-based. The note with it: human, HepG2-2.2.15 cells (stable line containing HBV ayw genome), peptide 10 micrograms per ml, % cell control.
Data set [4] concerns HCMV strain AD169. Nature of the data set: HCMV plaque reduction assay in MRC-5 cells. To be noted: HCMV AD169 in MRC-5 cells; peptide 10 micrograms per ml; 7-10 days. It counts as cell-based, human cytomegalovirus. The text has this: Ganciclovir was used as positive control.
Data set [5] has as its system A549 cells. Briefly: Propidium iodide cell cycle assay. The data set is classed as cell-based, human. To be noted: peptide 10 micrograms per ml, 24 hours, FACS.
Data set [6] concerns Human Peripheral Blood Mononuclear Cells (PBMC), T cell proliferation. Briefly: T cell proliferation assay (PHA-stimulated PBMC, 3H-thymidine). The data set is classed as cell-based. To be noted: peptide 10 micrograms per ml, 3 days plus 12 hours 3H-thymidine.
The test system of data set [7] is Human Peripheral Blood Mononuclear Cells (PBMC), B cell proliferation. Nature of the data set: B cell proliferation assay (SAC plus IL-2 stimulated PBMC, 3H-thymidine). It counts as cell-based. To be noted: peptide 10 micrograms per ml, 3 days plus 12 hours 3H-thymidine.
For data set [8], the system named is RAW 264.7 cells. Briefly: Phagocytosis assay (Fluorescein-labeled Escherichia coli, flow cytometry). It counts as cell-based, mouse. To be noted: peptide 10 micrograms per ml, 30 min preincubation, 60 min ingestion.
In data set [9] the test system is spleen cells of Ovalbumin-immunized Balb/c mice. Briefly: Th1/Th2 cytokine profiling assay (Ovalbumin-restimulated spleen cells, CBA kit). The data set is classed as cell-based, mouse. To be noted: peptide 10 micrograms per ml; Ovalbumin 10 micrograms/ml restimulation; 72 hours.
Excerpt: The Balb/c mice (originated in 1923, it is a popular strain and is used in many different research disciplines. Also classified as an inbred from the production of 20 or more successive brother-sister matings, the Balb/c mouse is albino and small in size) were immunized on Days 1, 15, and 29 with Ovalbumin (Ovalbumin is the main protein found in egg white, commonly used to stimulate an immunological reaction in test animals) in PBS (5 micrograms/injection). On day 50, spleens of the mice were harvested (3 weeks after last boost with Ovalbumin). […] Thereafter, additional Ovalbumin was added to the cells at 10 micrograms/ml for in vitro restimulation of the cells. 72 hours later, cell supernatants were harvested and assayed using the Becton Dickinson Mouse Th1/Th2 Cytokine CBA Kit. This kit can be used to measure Interleukin-2 (IL-2), Interleukin-4 (IL-4), Interleukin-5 (IL-5), Interferon-γ (IFN-γ), and Tumor Necrosis Factor-α (TNF-α) protein levels in a single sample.
Data set [10] has as its system TNF alpha production in PBMC-derived macrophages. Briefly: TNF alpha production assay (LPS-stimulated macrophages, ELISA). It counts as cell-based, human. The note with it: peptide 10 micrograms per ml, lipopolysaccharide 200 ng/ml, overnight. The text has this:
Not stimulated macrophages served as negative background control.
On the technique in general: ELISA stands for enzyme-linked immunosorbent assay.

The subject of data set [11] is Primary Human endothelial cells (HUVEC). Briefly: Endothelial cell migration assay. The data set is classed as cell-based. To be noted: peptide 10 micrograms per ml, 22 hours.
Data set [12] deals with HUVEC. Nature of the data set: Endothelial tube formation assay. The data set is classed as cell-based, human. To be noted: peptide 10 micrograms per ml, 20 hours. The text has this:
Positive control was vehicle only.

The nature of data set [13]: Cytotoxicity testing in MRC-5 cells (CellTiter 96). To be noted: human, MRC-5 cells (embryonal lung fibroblasts).
The conditions of data set [14]: human, cells plus peptide only.
The test system of data set [15] is MRC-5 cells. The note with it: human, 6 days.

For `Nc1ccn([C@@H]2CS[C@H](CO)O2)c(=O)n1` [Compound 3TC, Lamivudine, reference compound], the “% Cell viability” value in [1] was determined as 95.8%.

The viability is the share of living cells, or the viability signal relative to a control. In the case of `CC[C@H](C)[C@@H]1NC(=O)CNC(=O)[C@H](CCCNC(=N)N)NC(=O)CNC(=O)[C@@H]2CSSC[C@H](NC1=O)C(=O)N[C@@H](CCCNC(=N)N)C(=O)N[C@H]1CSSC[C@H](NC(=O)[C@H](CCCNC(=N)N)NC(=O)[C@@H]3CSSC[C@H](NC(=O)[C@H]([C@@H](C)CC)NC1=O)C(=O)NCC(=O)N[C@@H](CCCNC(=N)N)C(=O)NCC(=O)N[C@@H]([C@@H](C)CC)C(=O)N3)C(=O)N[C@@H]([C@@H](C)CC)C(=O)N2` [Retrocyclin-1] (cyclo(GICRCICGRGICRCICGR); disulfide 3-16, 5-14, 7-12 (inferred); ring closure inferred), the “% inhibition of HBV replication in HEP G2 cells” value in [2] is 72.2%. The molecule further came in with a viability at 144 h, 10 micrograms per ml in [3] of 78.5%. In addition, the “% plaque reduction” value in data set [4] is listed as 25.8%. Moreover, in data set [5], the “Cell cycle analysis G0/G1” value was 55.3, the “Cell cycle analysis G2/M” value is listed as 12.1 and the “Cell cycle analysis S” value is 32.6. Further, in [6], the “% of PHA induced control” value came out at 81.6%. Also, the “% of SAC/IL2 induced control” value in data set [7] amounted to 85.0%. In addition, the “% of control phagocytosis” value in [8] is on record as 79.4%. In addition, in data set [9], the “IFNγ spleen cells; TH1 response (% of control)” value is 137.6 % of control, the “IL-2 spleen cells (% of control)” value is 157.7 % of control, the “IL-4 spleen cells; TH2 response (% of control)” value is listed as 67.1 % of control and the “IL-5 spleen cells; TH2 response (% of control)” value is on record as 80.7 % of control. Moreover, the “TNF-a spleen cells; TH1 response (% of control)” value in data set [9] is 152.5 % of control. Besides, the “% of LPS induction” value in [10] is on record as 115.1%. The “% inhibition of migration” value in data set [11] came out at 8%. Besides, the “% inhibition of tube formation” value in data set [12] was 100%. Besides, in [13], the viability at 144 h was 100%. The viability at 10 micrograms per ml in data set [14] was 89.3%.

Regarding `Nc1nc(O)c2ncn(COC(CO)CO)c2n1` [Ganciclovir], in data set [15], the “% Cell viability” value was determined as 100%.
